The source of these data is ChEMBL document CHEMBL5131458, “Design, synthesis and human carbonic anhydrase I, II, IX and XII inhibitory properties of 1,3-thiazole sulfonamides” (Bioorg Med Chem Lett, 2022).

The target in the experiment is Carbonic anhydrase 9 (Homo sapiens, UniProt Q16790). Put plainly: Inhibition of recombinant human carbonic anhydrase 9 incubated for 15 mins by phenol red based stopped-flow CO2 hydration assay.
A word on the Ki: it is the dissociation constant of the complex between target and ligand, obtained from inhibition or displacement. In the case of `CCCCCCOC(=O)c1csc(Nc2ccc(S(N)(=O)=O)cc2)n1`, the Ki stood at 70.6 nM.

As for `NS(=O)(=O)c1ccc(Nc2nc(C(=O)OCCCCc3ccccc3)cs2)cc1`, the Ki amounted to 86.8 nM.

With `CCCCOC(=O)c1csc(Nc2ccc(S(N)(=O)=O)cc2)n1`, the Ki is 71.1 nM.

Regarding `COCCOC(=O)c1csc(Nc2ccc(S(N)(=O)=O)cc2)n1`, the inhibition constant (Ki) is 35.1 nM.

For the molecule `CC(CO)OC(=O)c1csc(Nc2ccc(S(N)(=O)=O)cc2)n1` (stereo not given), the Ki came to 37.9 nM.

On to `CCCCCCCCOC(=O)c1csc(Nc2ccc(S(N)(=O)=O)cc2)n1`, for which the Ki was found to be 78.9 nM.

In the case of `NS(=O)(=O)c1ccc(Nc2nc(C(=O)OCCOCCO)cs2)cc1`, the Ki is 26.8 nM.

Turning to `CCCOC(=O)c1csc(Nc2ccc(S(N)(=O)=O)cc2)n1`, the Ki is 49.9 nM.

As for `CC(C)OC(=O)c1csc(Nc2ccc(S(N)(=O)=O)cc2)n1`, the Ki was 90.3 nM.

`CCCCCOC(=O)c1csc(Nc2ccc(S(N)(=O)=O)cc2)n1`: the Ki was found to be 72 nM.

For the molecule `CCOCCOC(=O)c1csc(Nc2ccc(S(N)(=O)=O)cc2)n1`, the Ki amounted to 51.2 nM.

Regarding `CCCCCCCOC(=O)c1csc(Nc2ccc(S(N)(=O)=O)cc2)n1`, the Ki is 74.3 nM.

As to `NS(=O)(=O)c1ccc(Nc2nc(C(=O)OCCOc3ccccc3)cs2)cc1`, the Ki is 150 nM.

For `CC(O)COC(=O)c1csc(Nc2ccc(S(N)(=O)=O)cc2)n1` (stereo not given), the Ki is 37.9 nM.

As to `NS(=O)(=O)c1ccc(Nc2nc(C(=O)OCCO)cs2)cc1`, the Ki stood at 43.2 nM.
